From patent publication US4746648A, “Peptide derivatives which inhibit renin and acid proteases” (Sanofi; Institut National de la Recherche Medicale, priority 1985, dated 1988)
Starred links: 1 amine or outer side, 2 acyl side, 3 side chain; linkers in the order of their positions; H or OH if unused. Non-standard residues stand in square brackets, D forms with d. Residues, ends and D or L forms follow the SMILES beside them. ξ: configuration not given here. *: point of attachment. X9 = CCn1cnc(C[C@H](N[*:1])C(=O)[*:2])c1; His(τ-Me) = Cn1cnc(C[C@H](N)C(=O)O)c1; Sta = CC(C)C[C@H](N)[C@@H](O)CC(=O)O; X10 = Cc1nc(C(N[*:1])C(=O)[*:2])cs1; Gly(cPent) = N[C@H](C(=O)O)C1CCCC1; Phg = N[C@H](C(=O)O)c1ccccc1; ξ3Pal = NC(Cc1cccnc1)C(=O)O; ξ4Pal = NC(Cc1ccncc1)C(=O)O; Isovaleryl = CC(C)CC(=O)*; Boc = CC(C)(C)OC(=O)*; OBn = c1ccc(CO*)cc1; X4 = c1ccc(C*)nc1; tBu = CC(C)(C)*

Target: T1, human plasma renin activity (PRA) (Homo sapiens, UniProt P00797)
T1 construct: from tissue; host or cells: human plasma pool
T1 sequence (P00797 67-406): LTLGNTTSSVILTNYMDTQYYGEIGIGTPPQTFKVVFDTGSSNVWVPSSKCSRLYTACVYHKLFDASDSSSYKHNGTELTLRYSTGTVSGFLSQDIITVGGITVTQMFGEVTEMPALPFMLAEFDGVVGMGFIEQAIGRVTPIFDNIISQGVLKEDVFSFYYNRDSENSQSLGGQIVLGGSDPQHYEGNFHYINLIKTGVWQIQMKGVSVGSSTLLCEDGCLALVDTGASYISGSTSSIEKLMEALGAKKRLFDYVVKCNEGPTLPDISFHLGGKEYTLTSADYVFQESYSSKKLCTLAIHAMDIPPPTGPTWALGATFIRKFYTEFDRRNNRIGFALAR
Experiment: Inhibition of human plasma renin activity (PRA) in vitro, angiotensin I released measured by radioimmunoassay
Type: biochemical
Conditions: for IC50: read-out: Inhibition of human PRA -log IC50 M pH 7.4 (converted); for Inhibition of human PRA -log IC50 M pH 7.4: human plasma pool rich in renin, 60 min at 37° C., phosphate buffer pH 7.4
Procedure: Human plasma contains the substrate angiotensinogen and the enzyme renin. […] An inhibitor of the conversion enzyme, phenylmethylsulfonyl fluoride (PMSF), is added to the incubation medium.
420 microliters of human plasma
11 to 50 microliters of the product to be studied, at variable concentrations
A solution of acetic acid in methanol (19/1 by volume) and a solution of sodium hydroxide in methanol (2/1 by volume) are prepared. In a mixture of equal volumes of these 2 solutions, a 0.001M stock solution of the peptide is prepared. The subsequent dilutions of the peptide are then made up in the phosphate buffer.
The results are expressed by their logarithmic value (-log IC50).

Row | IC50 [µM] | further results | Molecule
1 | 0.0933 | – | COC(=O)C[C@H](O)[C@H](CC(C)C)NC(=O)[C@H](C)NC(=O)C[C@H](O)[C@H](CC(C)C)NC(=O)[C@@H](NC(=O)[C@H](Cc1ccccc1)NC(=O)OC(C)(C)C)c1ccccc1 [SR 42823, Boc--Phe--Phg--Sta--Ala--Sta--OMe] (Boc-F[Phg][Sta]A[Sta]-OMe)
2 | 0.398 | – | COC(=O)[C@H](CC(C)C)NC(=O)[C@H](C)NC(=O)C[C@H](O)[C@H](CC(C)C)NC(=O)[C@H](CC(=O)OCc1ccccc1)NC(=O)[C@H](Cc1ccccc1)NC(=O)OC(C)(C)C [SR 42926, Boc-Phe-(PhCH2)Asp-Sta-Ala-Leu-OMe] (Boc-FD(OBn)[Sta]AL-OMe)
3 | 3.02 | – | COC(=O)[C@H](CC(C)C)NC(=O)[C@H](C)NC(=O)C[C@H](O)[C@H](CC(C)C)NC(=O)C(NC(=O)[C@H](Cc1ccccc1)NC(=O)OC(C)(C)C)c1csc(C)n1 (stereo partly drawn) [SR 43059, Boc-Phe-(2-methylthiazol-4-yl)Gly-Sta-Ala-Leu-OMe] (Boc-F[X10][Sta]AL-OMe)
4 | 0.316 | – | COC(=O)[C@H](Cc1ccccc1)NC(=O)[C@H](CC(C)C)NC(=O)C[C@H](O)[C@H](CC(C)C)NC(=O)C(Cc1cccnc1)NC(=O)[C@H](Cc1ccccc1)NC(=O)OC(C)(C)C (stereo partly drawn) [SR 43064, Boc-Phe-(Pyr-3)Ala-Sta-Leu-Phe-OMe] (Boc-F[ξ3Pal][Sta]LF-OMe)
5 | 1.32 | – | COC(=O)[C@H](Cc1ccccc1)NC(=O)[C@H](CC(C)C)NC(=O)C[C@H](O)[C@H](CC(C)C)NC(=O)C(Cc1ccncc1)NC(=O)[C@H](Cc1ccccc1)NC(=O)OC(C)(C)C (stereo partly drawn) [SR 43144, Boc-Phe-(Pyr-4)Ala-Sta-Leu-Phe-OMe] (Boc-F[ξ4Pal][Sta]LF-OMe)
6 | 2.14 | – | COC(=O)C[C@H](O)[C@H](CC(C)C)NC(=O)[C@H](C)NC(=O)C[C@H](O)[C@H](CC(C)C)NC(=O)[C@H](COC(C)(C)C)NC(=O)[C@H](Cc1ccccc1)NC(=O)OC(C)(C)C [SR 43297, Boc--Phe--((CH3)3 CO)Ser--Sta--Ala--Sta--OMe] (Boc-FS(tBu)[Sta]A[Sta]-OMe)
7 | 0.0646 | – | CCn1cnc(C[C@H](NC(=O)[C@H](Cc2ccccc2)NC(=O)OC(C)(C)C)C(=O)N[C@@H](CC(C)C)[C@@H](O)CC(=O)N[C@@H](C)C(=O)N[C@@H](CC(C)C)[C@@H](O)CC(=O)OC)c1 [SR 43391, Boc--Phe--(tauEt)His--Sta--Ala--Sta--OMe] (Boc-F[X9][Sta]A[Sta]-OMe)
8 | 0.417 | – | COC(=O)C[C@H](O)[C@H](CC(C)C)NC(=O)[C@H](C)NC(=O)C[C@H](O)[C@H](CC(C)C)NC(=O)C(Cc1cccnc1)NC(=O)[C@H](Cc1ccccc1)NC(=O)OC(C)(C)C (stereo partly drawn) [SR 43429, Boc-Phe-(Pyr-3)Ala-Sta-Ala-Sta-OMe] (Boc-F[ξ3Pal][Sta]A[Sta]-OMe)
9 | 0.0372 | – | COC(=O)C[C@H](O)[C@H](CC(C)C)NC(=O)[C@H](C)NC(=O)C[C@H](O)[C@H](CC(C)C)NC(=O)[C@@H](NC(=O)[C@H](Cc1ccccc1)NC(=O)OC(C)(C)C)C1CCCC1 [SR 43554, Boc--Phe--Cpg--Sta--Ala--Sta--OMe] (Boc-F[Gly(cPent)][Sta]A[Sta]-OMe)
10 | 0.316 | – | COC(=O)C[C@H](O)[C@H](CC(C)C)NC(=O)[C@H](C)NC(=O)C[C@H](O)[C@H](CC(C)C)NC(=O)[C@H](COCc1ccccn1)NC(=O)[C@H](Cc1ccccc1)NC(=O)OC(C)(C)C [SR 43555, Boc--Phe--((Pyr--2)CH2 O)Ser--Sta--Ala--Sta--OMe] (Boc-FS(X4)[Sta]A[Sta]-OMe)
11 | 0.151 | – | CC(C)CC(=O)N[C@@H](Cc1ccccc1)C(=O)N[C@@H](Cc1cn(C)cn1)C(=O)N[C@@H](CC(C)C)[C@@H](O)CC(=O)N[C@@H](C)C(=O)N[C@@H](CC(C)C)[C@@H](O)CC(=O)O [SR 43761, iVa--Phe--(tauMe)His--Sta--Ala--Sta--OH] (Isovaleryl-F[His(τ-Me)][Sta]A[Sta]-OH)
12 | – | Inhibition of human PRA -log IC50 M pH 7.4: 6.16 -log M | Boc--Phe--(1-methylimidazol-2-yl)Ala--AHPPA--Ala--Sta--OCH3 [SR 43428]
13 | – | Inhibition of human PRA -log IC50 M pH 7.4: 5.21 -log M | Boc-Phe-(Pyr-2)Ala-Sta-Leu-Phe-OMe [SR 43150]
14 | – | Inhibition of human PRA -log IC50 M pH 7.4 (listed as 41 151): 6.66 -log M | Boc-Phe-(Pyr-2)Ala-Sta-Leu-Phe-OMe [SR 43151]
